Measured values taken from patent publication US20240374623A1, “TKTL1 INHIBITORS FOR ANTIVIRAL THERAPY” (Tavargenix GmbH, priority 2021, published 2024).

Tests used:
[1] = In vivo pharmacokinetics: blood-brain barrier penetration; conditions: in vivo pharmacokinetics data
From the text: A preferred inhibitory thiamine analog is the substance benfo-oxythiamine (B-OT). B-OT is a precursor (“pro-pharmacon”, “prodrug”) of oxythiamine, can be applied orally and releases oxythiamine shortly after its uptake into the mammalian organism. Via the bloodstream, B-OT can reach all cells in all parts of the body.

SARS-CoV-2 [2] = assay: Individual curative trials in hospitalized COVID-19 patients: viral load by PCR; type: in vivo, human; conditions: daily less than 20 mg B-OT per 70 kg body weight over 7 days
C-reactive protein (CRP) = assay: Individual curative trials in hospitalized COVID-19 patients: C-reactive protein level; type: in vivo, human; parameters: unit not given here
interleukin-6 (IL-6) = assay: Individual curative trials in hospitalized COVID-19 patients: interleukin-6 level; type: in vivo, human
[3] = tested on: human cytomegalovirus (HCMV); assay: HCMV-EYFP replication in human embryonic lung fibroblasts (HEL), fluorescence-based antiviral assay; type: cell-based; conditions: HCMV-EYFP-infected HEL cells, 48 h incubation; read-out: 50% inhibitory concentration (IC50), EYFP emission reduced by half
Description: Furthermore, the sensitivity of HCMV replication to B-OT in human mammalian cells was investigated. For this purpose, experiments were performed as described in the work of Dal Pozzo et al. 2008 with B-OT: Human embryonic lung fibroblasts (HEL) were infected with recombinant HCMV EYFP viruses additionally encoding enhanced yellow fluorescent protein (EYFP) (Dal Pozzo F, et al., 2008). As a measure of viral replication after infection with HCMV-EYFP, the emission of the EYFP protein was measured (excitation wavelength: 485 nm/emission: 530 nm). The constant and low cell-associated background emission measured in an automated manner was subtracted from the fluorescence emission value. To test the antiviral effect of B-OT, HCMV-EYFP-infected cells were incubated for 48 h with different B-OT concentrations (0 to 20 mM B-OT). Dose-dependent inhibition of fluorescence (as a measure of viral replication) was evident. The required compound concentration that reduced EYFP emission by half compared with untreated controls (0 mM B-OT) was defined as the 50% inhibitory concentration (IC50) in the fluorescence-based antiviral assay. The IC50 determined here was 0.5 mM B-OT.

HeLa cells = conditions: cited from earlier work
TKTL1 promoter = tested on: TKTL1 promoter; parameters: dose or concentration left out as unconfirmed; conditions: HeLa cells, resveratrol for 48 h; cited from earlier work
TKTL1 mRNA = type: cell-based, human; conditions: different resveratrol concentrations, 24 h
SARS-CoV-2 [4] = type: cell-based; conditions: 25 μM resveratrol for 48 h, Caco-2 cells
[5] = tested on: SARS-CoV-2 infected Caco-2 cells; conditions: human
[6] = daily less than 20 mg B-OT per 70 kg, after 7 days
[7] = hospitalized COVID-19 patients, start of therapy

Cc1ncc(C[n+]2csc(CCO)c2C)c(=O)[nH]1 [oxythiamine]
blood-brain barrier penetration [1]: can penetrate the blood-brain barrier

C/C(=C(\CCOP(=O)(O)O)SC(=O)c1ccccc1)N(C=O)Cc1cnc(C)[nH]c1=O [B-OT, benfo-oxythiamine]
viral load as detected by PCR (SARS-CoV-2 [2]): significant reduction in viral load
average CRP level under 7-day B-OT therapy (C-reactive protein (CRP); [6]): 5
average CRP level before B-OT therapy (C-reactive protein (CRP); [7]): 77
average IL-6 level under 7-day B-OT therapy (interleukin-6 (IL-6); [6]): 5 pg/mL
average IL-6 level before B-OT therapy (interleukin-6 (IL-6); [7]): 63 pg/mL
IC50 [3]: 500 µM

Oc1ccc(C=Cc2cc(O)cc(O)c2)cc1 [resveratrol]
viability of HeLa cells (HeLa cells): significant decrease in the viability of HeLa cells
reduction in TKTL1 promoter activity compared to untreated cells (TKTL1 promoter): 75%
reduction of TKTL1 mRNA (TKTL1 mRNA): the higher the concentration the stronger the reduction
decrease of replication ability of SARS-CoV-2 viruses compared to the control (SARS-CoV-2 [4]): 68%
viability of Caco-2 cells [5]: 93%
